The source made the active and inactive calls. How the calls were made is not given here.
Tested on: CCRIS mutagenicity, Ames/micronucleus/aberration tests
Experiment: CCRIS mutagenicity studies

COS(C)(=O)=O
mutagenic call (End Point: IN VITRO MICRONUCLEUS, Test System: CHINESE HAMSTER OVARY CELLS, Metabolic Activation: NONE): active; positive | mutagenic call (End Point: IN VITRO MICRONUCLEUS, Test System: CHL/IU CELLS, Metabolic Activation: NONE): active; positive | mutagenic call (End Point: IN VITRO MICRONUCLEUS, Test System: CHO CELLS, Metabolic Activation: RAT, LIVER, S-9, AROCLOR 1254): active; positive | mutagenic call (End Point: IN VITRO MICRONUCLEUS, Test System: HUMAN FIBROBLASTS VH25 CELLS, Metabolic Activation: NONE): active; positive | mutagenic call (End Point: IN VITRO MICRONUCLEUS, Test System: MOUSE LYMPHOMA L5178Y CELLS, Metabolic Activation: NONE): active; positive | mutagenic call (End Point: IN VIVO MICRONUCLEUS, Test System: BONE MARROW POLYCHROMATIC ERYTHROCYTES, Species: MOUSE, Strain/Sex: SWISS/FEMALE, Route: IP): active; positive | mutagenic call (End Point: IN VIVO MICRONUCLEUS, Test System: HEPATOCYTES, Species: RAT, Strain/Sex: FISHER 344 OR SD/MALE, Route: ORAL OR IP): inactive; negative | mutagenic call (End Point: IN VIVO MICRONUCLEUS, Test System: PERIPHERAL BLOOD RETICULOCYTES, Species: RAT, Strain/Sex: FISHER 344 OR SD/MALE, Route: ORAL OR IP): active; positive | mutagenic call (End Point: In vitro micronucleus, Test System: Chinese hamster ovary (CHO) cells, Metabolic Activation: None): active; positive (lycopene (10, 25 and 50 um) significantly reduced the number of micron | mutagenic call (End Point: In vitro micronucleus, Test System: Chinese hamster ovary (CHO-WBL) cells, Metabolic Activation: None): active; positive (p<0.01) | mutagenic call (Test System: AMES SALMONELLA TYPHIMURIUM, Strain/Indicator: TA97, Metabolic Activation: NONE, Method: STANDARD PLATE): active; positive | mutagenic call (Test System: AMES SALMONELLA TYPHIMURIUM, Strain/Indicator: TA97, Metabolic Activation: RAT, LIVER, S-9, AROCLOR 1254, Method: STANDARD PLATE): inactive; negative | mutagenic call (Test System: AMES SALMONELLA TYPHIMURIUM, Strain/Indicator: TA98, Metabolic Activation: NONE, Method: STANDARD PLATE): inactive; negative | mutagenic call (Test System: AMES SALMONELLA TYPHIMURIUM, Strain/Indicator: TA98, Metabolic Activation: RAT, LIVER, S-9, AROCLOR 1254, Method: STANDARD PLATE): inactive; negative | mutagenic call (Test System: AMES SALMONELLA TYPHIMURIUM, Strain/Indicator: TA100, Metabolic Activation: NONE, Method: STANDARD PLATE): active; positive | mutagenic call (Test System: AMES SALMONELLA TYPHIMURIUM, Strain/Indicator: TA100, Metabolic Activation: RAT, LIVER, S-9, AROCLOR 1254, Method: STANDARD PLATE): inactive; negative | mutagenic call (Test System: AMES SALMONELLA TYPHIMURIUM, Strain/Indicator: TA1535, Metabolic Activation: NONE, Method: STANDARD PLATE): active; positive | mutagenic call (Test System: AMES SALMONELLA TYPHIMURIUM, Strain/Indicator: YG7100, Metabolic Activation: NONE, Method: PREINCUBATION): inactive; negative | mutagenic call (Test System: AMES SALMONELLA TYPHIMURIUM, Strain/Indicator: YG7104, Metabolic Activation: NONE, Method: PREINCUBATION): active; positive | mutagenic call (Test System: AMES SALMONELLA TYPHIMURIUM, Strain/Indicator: YG7108, Metabolic Activation: NONE, Method: PREINCUBATION): active; positive | mutagenic call (Test System: AMES SALMONELLA TYPHIMURIUM, Strain/Indicator: YG7112, Metabolic Activation: NONE, Method: PREINCUBATION): active; positive | mutagenic call (Test System: AMES SALMONELLA TYPHIMURIUM, Strain/Indicator: YG7113, Metabolic Activation: NONE, Method: PREINCUBATION): active; positive | mutagenic call (Test System: AMES SALMONELLA TYPHIMURIUM, Strain/Indicator: YG7119, Metabolic Activation: NONE, Method: PREINCUBATION): active; positive | mutagenic call (Test System: CHINESE HAMSTER OVARY, Strain/Indicator: CHO-K1-BH4 (HGPRT)/6-THIOGUANINE, Metabolic Activation: NONE, Method: SUSPENSION/PLATE): active; positive | mutagenic call (Test System: CHINESE HAMSTER OVARY, Strain/Indicator: CHO-K1-BH4 (HGPRT), Metabolic Activation: NONE, Method: MONOLAYER): active; positive | mutagenic call (Test System: CHINESE HAMSTER OVARY, Strain/Indicator: CHO-K1-BH4 (HGPRT), Metabolic Activation: NONE, Method: SUSPENSION/PLATE): active; positive | mutagenic call (Test System: CHINESE HAMSTER V-79, Strain/Indicator: V-79/6-THIOGUANINE, Metabolic Activation: NONE, Method: FLASK ASSAY): active; positive | mutagenic call (Test System: CHINESE HAMSTER V-79, Strain/Indicator: V-79/6-THIOGUANINE, Metabolic Activation: NONE, Method: STANDARD PLATE): active; positive | mutagenic call (Test System: CHINESE HAMSTER V-79, Strain/Indicator: V-79/6-THIOGUANINE, Metabolic Activation: NONE, Method: SUSPENSION/PLATE): active; positive | mutagenic call (Test System: CHINESE HAMSTER V-79, Strain/Indicator: V-79/8-AZAGUANINE, Metabolic Activation: NONE, Method: STANDARD PLATE): active; positive | mutagenic call (Test System: CHINESE HAMSTER V-79, Strain/Indicator: V-79/OUABAIN, Metabolic Activation: NONE, Method: STANDARD PLATE): active; positive | mutagenic call (Test System: CHINESE HAMSTER V-79, Strain/Indicator: V-79/OUABAIN, Metabolic Activation: NONE, Method: SUSPENSION/PLATE): inactive; negative | mutagenic call (Test System: CHO/HGPRT, Strain/Indicator: CHO-K1-BH4, Metabolic Activation: NONE, Method: STANDARD PLATE): active; positive | mutagenic call (Test System: E. COLI, Strain/Indicator: TK701 (PKM101), Metabolic Activation: NONE, Method: STANDARD PLATE): active; positive | mutagenic call (Test System: E. COLI, Strain/Indicator: TK701, Metabolic Activation: NONE, Method: STANDARD PLATE): active; positive | mutagenic call (Test System: E. COLI, Strain/Indicator: TK702 (PKM101), Metabolic Activation: NONE, Method: STANDARD PLATE): active; positive | mutagenic call (Test System: E. COLI, Strain/Indicator: TK702, Metabolic Activation: NONE, Method: STANDARD PLATE): inactive; negative | mutagenic call (Test System: E. COLI, Strain/Indicator: WP2, Metabolic Activation: NONE, Method: FLUCTUATION): active; positive | mutagenic call (Test System: E. COLI, Strain/Indicator: WP2, Metabolic Activation: NONE, Method: PREINCUBATION): active; positive | mutagenic call (Test System: E. COLI, Strain/Indicator: WP2, Metabolic Activation: NONE, Method: STANDARD PLATE): active; positive | mutagenic call (Test System: E. COLI, Strain/Indicator: WP2 UVRA, Metabolic Activation: HAMSTER, LIVER, S-9, AROCLOR 1254, Method: STANDARD PLATE): active; positive | mutagenic call (Test System: E. COLI, Strain/Indicator: WP2 UVRA, Metabolic Activation: HAMSTER, LIVER, S-9, Method: STANDARD PLATE): active; positive | mutagenic call (Test System: E. COLI, Strain/Indicator: WP2 UVRA, Metabolic Activation: MOUSE, LIVER, S-9, AROCLOR 1254, Method: STANDARD PLATE): active; positive | mutagenic call (Test System: E. COLI, Strain/Indicator: WP2 UVRA, Metabolic Activation: MOUSE, LIVER, S-9, Method: STANDARD PLATE): active; positive | mutagenic call (Test System: E. COLI, Strain/Indicator: WP2 UVRA, Metabolic Activation: NONE, Method: FLUCTUATION): active; positive | mutagenic call (Test System: E. COLI, Strain/Indicator: WP2 UVRA, Metabolic Activation: NONE, Method: PREINCUBATION): active; positive | mutagenic call (Test System: E. COLI, Strain/Indicator: WP2 UVRA, Metabolic Activation: RAT, LIVER, S-9, AROCLOR 1254, Method: STANDARD PLATE): active; positive | mutagenic call (Test System: E. COLI, Strain/Indicator: WP2 UVRA, Metabolic Activation: RAT, LIVER, S-9, Method: STANDARD PLATE): active; positive | mutagenic call (Test System: MOUSE LYMPHOMA, Strain/Indicator: L5178Y (TK+/TK-), Metabolic Activation: NONE, Method: SUSPENSION/PLATE): active; positive | mutagenic call (Test System: MOUSE LYMPHOMA, Strain/Indicator: L5178Y (TK+/TK-), Metabolic Activation: RAT, LIVER, S-9, AROCLOR 1254, Method: SUSPENSION/PLATE): active; positive | mutagenic call (Test System: UDS HUMAN CELLS, Strain/Indicator: THY INCORP (NON-S-PHASE), Metabolic Activation: NONE, Method: AUTORADIOGRAPHY): active; positive | mutagenic call (Test System: UDS HUMAN CELLS, Strain/Indicator: THY INCORP (NON-S-PHASE), Metabolic Activation: NONE, Method: LIQUID SCINTILLATION COUNTING): active; positive | mutagenic call (Test System: UDS HUMAN KERATINOCYTES, Strain/Indicator: THY INCORP, Metabolic Activation: NONE, Method: AUTORADIOGRAPHY): active; positive | mutagenic call (Test System: UDS HUMAN LYMPHOCYTES, Strain/Indicator: THY INCORP (NON-S-PHASE), Metabolic Activation: NONE, Method: LIQUID SCINTILLATION COUNTING): active; positive | mutagenic call (Test System: UDS MONKEY HEPATOCYTES, Strain/Indicator: THY INCORP, Metabolic Activation: AROCLOR 1254, Method: AUTORADIOGRAPHY): active; positive | mutagenic call (Test System: UDS MONKEY HEPATOCYTES, Strain/Indicator: THY INCORP, Metabolic Activation: NONE, Method: AUTORADIOGRAPHY): active; positive | mutagenic call (Test System: UDS RAT HEPATOCYTES, Strain/Indicator: BROMODEOXYURIDINE INCORP, Metabolic Activation: NONE, Method: FLOW CYTOMETRIC ANALYSIS): active; positive | mutagenic call (Test System: UDS RAT HEPATOCYTES, Strain/Indicator: THY INCORP, Metabolic Activation: NONE, Method: AUTORADIOGRAPHY): active; positive | mutagenic call (Test System: UDS RAT PACHYTENE SPERMATOCYTES, Strain/Indicator: THY INCORP, Metabolic Activation: NONE, Method: LIQUID SCINTILLATION COUNTING): active; positive | mutagenic call (Test System: UDS RODENT CELLS, Strain/Indicator: THY INCORP (NON-S-PHASE), Metabolic Activation: NONE, Method: AUTORADIOGRAPHY): active; positive | mutagenic call (Test System: UDS RODENT CELLS, Strain/Indicator: THY INCORP (NON-S-PHASE), Metabolic Activation: NONE, Method: LIQUID SCINTILLATION COUNTING): active; positive | mutagenic call (Test System: UDS RODENT HEPATOCYTES, Strain/Indicator: THY INCORP (NON-S-PHASE), Method: AUTORADIOGRAPHY): active; positive | mutagenic call (Test System: UDS RODENT HEPATOCYTES, Strain/Indicator: THY INCORP (NON-S-PHASE), Method: LIQUID SCINTILLATION COUNTING): active; positive | mutagenic call (Test System: UDS RODENT PRIMARY CELLS, Strain/Indicator: THY INCORP (NON-S-PHASE), Metabolic Activation: NONE, Method: LIQUID SCINTILLATION COUNTING): active; positive | mutagenic call (Test System: UDS, Strain/Indicator: HEPG2/THYMIDINE INCORPORATION, Metabolic Activation: NONE, Method: AUTORADIOGRAPHY): active; positive

Reference: PubChem BioAssay AID1259407 (Chemical Carcinogenesis Research Information System (CCRIS), 2018)
